Legend:
Assay in all cases: relative viability (nuclei count vs DMSO), 5 days (fraction); higher = more cells survive
[1] = compound: CN(C)C[C@@H]1CCn2cc(c3ccccc32)C2=C(C(=O)NC2=O)c2cn(c3ccccc23)CCO1 [Ruboxistaurin] + CS(=O)(=O)N1CCN(Cc2cc3nc(-c4cccc5[nH]ncc45)nc(N4CCOCC4)c3s2)CC1 [Pictilisib] (partner 1 µM)
In short: (§1)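 One day after seeding in 1536-well plates, lung cancer cell lines were dosed by pin tool. Dosing was either single-drug or a fixed anchor-drug dose plus five library-drug doses (not always all listed) in √10 steps. After 5 days, nuclei were stained in one fix-and-stain step and counted on 4× images, and relative viability is the nuclei count of treated wells over that of vehicle wells, given as the median of duplicate plates.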

[2] = compound: CN(C)C[C@@H]1CCn2cc(c3ccccc32)C2=C(C(=O)NC2=O)c2cn(c3ccccc23)CCO1 [Ruboxistaurin] + CS(=O)(=O)CCNCc1ccc(-c2ccc3ncnc(Nc4ccc(OCc5cccc(F)c5)c(Cl)c4)c3c2)o1 [Lapatinib] (partner 2 µM)
In short: as §1

[3] = compound: CN(C)C[C@@H]1CCn2cc(c3ccccc32)C2=C(C(=O)NC2=O)c2cn(c3ccccc23)CCO1 [Ruboxistaurin] + COc1cc2c(Oc3ccc(NC(=O)C4(C(=O)Nc5ccc(F)cc5)CC4)cc3F)ccnc2cc1OCCCN1CCOCC1 [Foretinib] (partner 0.25 µM)
In short: as §1

[4] = compound: CN(C)C[C@@H]1CCn2cc(c3ccccc32)C2=C(C(=O)NC2=O)c2cn(c3ccccc23)CCO1 [Ruboxistaurin] + C[C@]1(O)C[C@@H](c2nc(-c3ccc4ccc(-c5ccccc5)nc4c3)c3c(N)nccn32)C1 [Linsitinib] (partner 1 µM)
In short: as §1

[5] = compound: CN(C)C[C@@H]1CCn2cc(c3ccccc32)C2=C(C(=O)NC2=O)c2cn(c3ccccc23)CCO1 [Ruboxistaurin] + N=C(N)NC(=N)NCCc1ccccc1 [Phenformin] (partner 250 µM)
In short: as §1

Ruboxistaurin + Olaparib = compound: CN(C)C[C@@H]1CCn2cc(c3ccccc32)C2=C(C(=O)NC2=O)c2cn(c3ccccc23)CCO1 [Ruboxistaurin] + O=C(c1cc(Cc2n[nH]c(=O)c3ccccc23)ccc1F)N1CCN(C(=O)C2CC2)CC1 [Olaparib] (partner 8 µM)
In short: as §1

[6] = compound: CN(C)C[C@@H]1CCn2cc(c3ccccc32)C2=C(C(=O)NC2=O)c2cn(c3ccccc23)CCO1 [Ruboxistaurin] + CC1(C)CCC(c2ccc(Cl)cc2)=C(CN2CCN(c3ccc(C(=O)NS(=O)(=O)c4ccc(N[C@H](CCN5CCOCC5)CSc5ccccc5)c(S(=O)(=O)C(F)(F)F)c4)cc3)CC2)C1 [Navitoclax] (partner 0.5 µM)
In short: as §1

[7] = compound: CN(C)C[C@@H]1CCn2cc(c3ccccc32)C2=C(C(=O)NC2=O)c2cn(c3ccccc23)CCO1 [Ruboxistaurin] + Nc1ncn([C@H]2C[C@H](O)[C@@H](CO)O2)c(=O)n1 [Decitabine] (partner 2 µM)
In short: as §1

[8] = compound: CN(C)C[C@@H]1CCn2cc(c3ccccc32)C2=C(C(=O)NC2=O)c2cn(c3ccccc23)CCO1 [Ruboxistaurin] + Cc1nc(NC(=O)N2CCC[C@H]2C(N)=O)sc1-c1ccnc(C(C)(C)C(F)(F)F)c1 [Alpelisib] (partner 2 µM)
In short: as §1

[9] = compound: CN(C)C[C@@H]1CCn2cc(c3ccccc32)C2=C(C(=O)NC2=O)c2cn(c3ccccc23)CCO1 [Ruboxistaurin] + C[C@@H](Oc1cc(-c2cnn(C3CCNCC3)c2)cnc1N)c1c(Cl)ccc(F)c1Cl [Crizotinib] (partner 1 µM)
In short: as §1

Ruboxistaurin = compound: CN(C)C[C@@H]1CCn2cc(c3ccccc32)C2=C(C(=O)NC2=O)c2cn(c3ccccc23)CCO1 [Ruboxistaurin]
In short: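 Following overnight incubation at 37 °C, lung cancer cell lines in 1536-well plates were pinned with five library-drug doses (not always all listed) in √10 steps on vehicle-anchored plates. The cells then spent 5 days without medium change before a combined fix, permeabilisation and Hoechst stain, 4× imaging and MetaXpress nuclear counts. Viability is the treated-to-vehicle ratio of nuclei, taken as the median across plates. Only plates with control CV below 25% and at least one doubling passed.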

Cell Line A549 has a relative viability ([1]; first compound 0.08 µM) of 0.567, a relative viability ([1]; first compound 0.8 µM) of 0.423 and a relative viability ([1]; first compound 2.53 µM) of 0.385. For the same cell line, the relative viability ([1]; first compound 8 µM) was 0.223, the relative viability ([2]; first compound 0.08 µM) was 1.03 and the relative viability ([2]; first compound 0.8 µM) was 0.838. For the same cell line, the relative viability ([2]; first compound 2.53 µM) was 0.866, the relative viability ([2]; first compound 8 µM) was 0.753 and the relative viability ([3]; first compound 0.08 µM) was 1.04. The relative viability ([3]; first compound 0.8 µM) was 0.935, the relative viability ([3]; first compound 2.53 µM) was 1.06 and the relative viability ([3]; first compound 8 µM) was 0.962. It also gave a relative viability ([4]; first compound 0.08 µM) of 0.685, a relative viability ([4]; first compound 0.8 µM) of 0.562 and a relative viability ([4]; first compound 2.53 µM) of 0.61. It also gave a relative viability ([4]; first compound 8 µM) of 0.458, a relative viability ([5]; first compound 0.08 µM) of 0.199 and a relative viability ([5]; first compound 0.8 µM) of 0.162. The relative viability ([5]; first compound 2.53 µM) was 0.221, the relative viability ([5]; first compound 8 µM) was 0.175 and the relative viability (Ruboxistaurin + Olaparib; first compound 0.08 µM) was 0.27. It also gave a relative viability (Ruboxistaurin + Olaparib; first compound 0.8 µM) of 0.273, a relative viability (Ruboxistaurin + Olaparib; first compound 2.53 µM) of 0.415 and a relative viability (Ruboxistaurin + Olaparib; first compound 8 µM) of 0.381. For the same cell line, the relative viability ([6]; first compound 0.08 µM) was 1.23, the relative viability ([6]; first compound 0.8 µM) was 1.18 and the relative viability ([6]; first compound 2.53 µM) was 1.16. It also gave a relative viability ([6]; first compound 8 µM) of 0.99, a relative viability ([7]; first compound 0.08 µM) of 0.264 and a relative viability ([7]; first compound 0.8 µM) of 0.217. For the same cell line, the relative viability ([7]; first compound 2.53 µM) was 0.307, the relative viability ([7]; first compound 8 µM) was 0.305 and the relative viability ([8]; first compound 0.08 µM) was 0.75. It also gave a relative viability ([8]; first compound 0.8 µM) of 0.562, a relative viability ([8]; first compound 2.53 µM) of 0.944 and a relative viability ([8]; first compound 8 µM) of 0.501. The relative viability ([9]; first compound 0.08 µM) was 0.751, the relative viability ([9]; first compound 0.8 µM) was 0.631 and the relative viability ([9]; first compound 2.53 µM) was 0.862. It also gave a relative viability ([9]; first compound 8 µM) of 0.679, a relative viability (Ruboxistaurin; 0.08 µM) of 1.05 and a relative viability (Ruboxistaurin; 0.8 µM) of 0.9. The relative viability (Ruboxistaurin; 2.53 µM) was 1 and the relative viability (Ruboxistaurin; 8 µM) was 0.83.

Reference: the supplement of paper PMC10307832
